From ChEMBL document CHEMBL4811297, “Low cytotoxic quinoline-4-carboxylic acids derived from vanillin precursors as potential human dihydroorotate dehydrogenase inhibitors” (Bioorg Med Chem Lett, 2021)

How the values were obtained:
[1] = biological target: Dihydroorotate dehydrogenase (quinone), mitochondrial (Homo sapiens, UniProt Q02127); test: Inhibition of human DHODH
HaCaT = test: Antiproliferative activity against human HaCaT cells assessed as inhibition of cell proliferation; format: cell-based
[2] = Lipophilicity, log D of compound at pH 7.4 in octanol/phosphate buffer measured by shake flask method; format: physicochemical

Chain of Dihydroorotate dehydrogenase (quinone), mitochondrial (Q02127 whole entry): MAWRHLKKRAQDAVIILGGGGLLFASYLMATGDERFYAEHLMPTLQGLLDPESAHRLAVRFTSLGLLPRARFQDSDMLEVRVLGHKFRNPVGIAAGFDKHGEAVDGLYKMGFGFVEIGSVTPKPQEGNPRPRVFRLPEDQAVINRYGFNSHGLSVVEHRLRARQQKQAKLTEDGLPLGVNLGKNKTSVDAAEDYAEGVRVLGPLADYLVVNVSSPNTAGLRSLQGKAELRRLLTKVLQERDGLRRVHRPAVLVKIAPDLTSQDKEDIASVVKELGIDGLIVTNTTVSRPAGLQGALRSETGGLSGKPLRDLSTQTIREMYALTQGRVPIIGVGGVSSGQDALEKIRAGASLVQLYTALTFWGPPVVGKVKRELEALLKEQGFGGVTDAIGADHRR

| SMILES | IC50 [1] [µM] | logD [2] | IC50 (HaCaT) [µM] |
| --- | --- | --- | --- |
| COc1cc(-c2cc(C(=O)O)c3ccccc3n2)ccc1OCC(=O)Nc1cccc(C)c1 | 1.9 | 1.5 | 225 |
| COc1cc(-c2cc(C(=O)O)c3ccccc3n2)ccc1OCC(=O)Nc1ccc(C)cc1 | 3.8 | 1.2 | > 300 |
| CCCCCCNC(=O)COc1ccc(-c2cc(C(=O)O)c3ccccc3n2)cc1OC | 2.7 | 1 | > 300 |
| COc1cc(-c2cc(C(=O)O)c3ccccc3n2)ccc1OCC(=O)Nc1cccc(F)c1 | 2.1 | 1.6 | 148 |
| COc1cc(-c2cc(C(=O)O)c3ccccc3n2)ccc1OCC(=O)Nc1ccccc1 | 3.9 | 0.7 | > 300 |
| COc1cc(-c2cc(C(=O)O)c3ccccc3n2)ccc1OCC(=O)NCc1cccs1 | 3.1 | 0 | > 300 |
| COc1cc(-c2cc(C(=O)O)c3ccccc3n2)ccc1OCC(=O)Nc1ccc(C(F)(F)F)cc1 | 2.4 | 1.6 | 150 |
| COc1cc(-c2cc(C(=O)O)c3ccccc3n2)ccc1OCC(=O)Nc1ccccc1C | 5.9 | 0.8 | 230 |
| COc1cc(-c2cc(C(=O)O)c3ccccc3n2)ccc1OCC(=O)NCc1ccccc1 | 3.7 | 0.4 | > 300 |

Now those with a lower IC50 [1], led by results:

| IC50 [1] [µM] | logD [2] | SMILES | IC50 (HaCaT) [µM] |
| --- | --- | --- | --- |
| 1.7 | 0.8 | COc1cc(-c2cc(C(=O)O)c3ccccc3n2)ccc1OCC(=O)NC1CCCCC1 | > 300 |
| 1.7 | 1 | COc1cc(-c2cc(C(=O)O)c3ccccc3n2)ccc1OCC(=O)NC12CC3CC(CC(C3)C1)C2 | 180 |
| 1.6 | 1.1 | COc1cc(-c2cc(C(=O)O)c3ccccc3n2)ccc1OCC(=O)Nc1ccc(F)cc1 | 286 |
| 1.3 | 1.6 | COc1cc(-c2cc(C(=O)O)c3ccccc3n2)ccc1OCC(=O)Nc1ccccc1Cl | 210 |
| 1 | -0.3 | COc1cc(-c2cc(C(=O)O)c3ccccc3n2)ccc1OCC(=O)NCc1ccco1 | > 300 |
| 0.7 | -0.8 | COc1cc(-c2cc(C(=O)O)c3ccccc3n2)ccc1OCC(=O)NCc1cccnc1 | > 300 |
| 0.5 | 1.5 | COc1cc(-c2cc(C(=O)O)c3ccccc3n2)ccc1OCC(=O)Nc1ccc(Cl)cc1 | > 300 |
| 0.5 | 2.3 | COc1cc(-c2cc(C(=O)O)c3ccccc3n2)ccc1OCC(=O)Nc1cccc(Cl)c1 | 192 |
| 0.5 | 1.3 | COc1cc(-c2cc(C(=O)O)c3ccccc3n2)ccc1OCC(=O)Nc1cccc(C(F)(F)F)c1 | 160 |
| 0.5 | 0.9 | COc1cc(-c2cc(C(=O)O)c3ccccc3n2)ccc1OCC(=O)Nc1ccccc1F | 161 |
| 0.3 | 1.3 | COc1cc(-c2cc(C(=O)O)c3ccccc3n2)ccc1OCC(=O)Nc1ccccc1C(F)(F)F | 102 |
